The values below come from ChEMBL document CHEMBL3779839, “Identification of Novel GPR55 Modulators Using Cell-Impedance-Based Label-Free Technology” (J Med Chem, 2016).

SMILES strings stand for the structures. Calls of active or inactive are those of the source. The calls are words filed in the database; no cut-off is given here. A value given as a limit tells only on which side of the number the result lay.

The Ki is the equilibrium dissociation constant of an inhibitor or competing ligand from its target. As a reminder, the Emax is the size of the effect at its maximum, as opposed to the concentration needed. By inhibition is commonly meant the share of the control response that was lost under treatment. A higher inhibition goes with a strong effect. As a reminder, the EC50 is the concentration at which the effect is half-maximal.

The test system of experiment [1] is HEK293. Kind of experiment: Effect on non-transfected HEK293 cells at 1 nM to 10 uM after 5 mins by xCELLigence assay. Format: functional, cell-based. To be noted: Homo sapiens.
The next experiment concerns the target Cannabinoid receptor 1 (Homo sapiens, UniProt P21554). Kind of experiment: Displacement of [3H]CP55940 from human CB1 receptor expressed in HEK293 EBNA cells after 90 mins by liquid scintillation spectrophotometer. In kind it is cell-based. In general terms: Loss of bound radioactivity is the signal in a displacement assay; it reports binding, not function.

In experiment [2] the target is T1, Cannabinoid receptor 2 (Homo sapiens, UniProt P34972). Kind of experiment: Displacement of [3H]CP55940 from human CB2 receptor expressed in HEK293 EBNA cells after 90 mins by liquid scintillation spectrophotometer. In kind it is cell-based.
For experiment [3], the target named is T2, G-protein coupled receptor 55 (Homo sapiens, UniProt Q9Y2T6). Kind of experiment: Antagonist activity at recombinant human GPR55 expressed in HEK293 cells assessed as LPI mediated receptor activation by measuring LPI Emax at 1 uM after 5 mins by xCELLigence assay (reference value: 99 to 104%). Format: cell-based.
Experiment [4] deals with T2, G-protein coupled receptor 55. Briefly: Agonist activity at recombinant human GPR55 expressed in HEK293 cells after 5 mins by xCELLigence assay. In kind it is cell-based.
For experiment [5] the target is unchanged. Briefly: Agonist activity at recombinant human GPR55 expressed in HEK293 cells at 1 uM after 5 mins by xCELLigence assay relative to LPI. Format: cell-based.
For experiment [6], the target named is T1, Cannabinoid receptor 2. Kind of experiment: Displacement of [3H]CP55940 from human CB2 receptor expressed in HEK293 EBNA cells at 40 uM after 90 mins by liquid scintillation spectrophotometer. Format: cell-based.
The subject of experiment [7] is HEK293. Briefly: Effect on non-transfected HEK293 cells at 10 uM after 5 mins by xCELLigence assay. Format: functional, cell-based. To be noted: Homo sapiens.
The target of experiment [8] is T2, G-protein coupled receptor 55. Kind of experiment: Partial agonist activity at recombinant human GPR55 expressed in HEK293 cells at 1 uM after 5 mins by xCELLigence assay relative to LPI. Format: cell-based.
For experiment [9] the target is unchanged. Briefly: Partial agonist activity at recombinant human GPR55 expressed in HEK293 cells after 5 mins by xCELLigence assay. Format: cell-based.
Experiment [10] concerns the target T1, Cannabinoid receptor 2. Briefly: Agonist activity at human CB2 receptor expressed in CHO cells after 30 mins by [35S]-GTPgammaS binding assay relative to control. In general terms: GTPγS is a poorly hydrolysed GTP analogue; its binding reports G protein activation.

T1 sequence (P34972 whole entry): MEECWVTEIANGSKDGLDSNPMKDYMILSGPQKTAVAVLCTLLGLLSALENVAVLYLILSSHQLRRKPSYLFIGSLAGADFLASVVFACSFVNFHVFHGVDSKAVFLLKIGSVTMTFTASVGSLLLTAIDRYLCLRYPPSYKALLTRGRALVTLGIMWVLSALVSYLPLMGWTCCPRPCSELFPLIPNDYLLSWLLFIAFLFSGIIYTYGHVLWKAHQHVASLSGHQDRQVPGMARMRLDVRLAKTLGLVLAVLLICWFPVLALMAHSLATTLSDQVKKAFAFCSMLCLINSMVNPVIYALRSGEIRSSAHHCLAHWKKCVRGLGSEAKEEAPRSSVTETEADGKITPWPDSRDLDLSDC
Cannabinoid receptor 1, sequence (P21554 whole entry): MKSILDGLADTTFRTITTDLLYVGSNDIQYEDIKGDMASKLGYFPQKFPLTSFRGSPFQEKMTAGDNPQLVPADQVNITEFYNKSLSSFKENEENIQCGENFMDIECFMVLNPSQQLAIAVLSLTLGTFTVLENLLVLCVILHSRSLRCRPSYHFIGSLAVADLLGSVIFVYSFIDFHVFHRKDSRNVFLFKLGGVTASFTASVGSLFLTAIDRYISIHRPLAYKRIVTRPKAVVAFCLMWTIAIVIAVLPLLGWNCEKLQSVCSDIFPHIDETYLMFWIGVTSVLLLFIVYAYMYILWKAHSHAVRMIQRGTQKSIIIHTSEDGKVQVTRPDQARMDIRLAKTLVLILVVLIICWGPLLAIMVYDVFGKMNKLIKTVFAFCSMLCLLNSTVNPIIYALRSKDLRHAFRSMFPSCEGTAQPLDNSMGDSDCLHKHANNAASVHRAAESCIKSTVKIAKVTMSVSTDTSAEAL
T2 sequence (Q9Y2T6 whole entry): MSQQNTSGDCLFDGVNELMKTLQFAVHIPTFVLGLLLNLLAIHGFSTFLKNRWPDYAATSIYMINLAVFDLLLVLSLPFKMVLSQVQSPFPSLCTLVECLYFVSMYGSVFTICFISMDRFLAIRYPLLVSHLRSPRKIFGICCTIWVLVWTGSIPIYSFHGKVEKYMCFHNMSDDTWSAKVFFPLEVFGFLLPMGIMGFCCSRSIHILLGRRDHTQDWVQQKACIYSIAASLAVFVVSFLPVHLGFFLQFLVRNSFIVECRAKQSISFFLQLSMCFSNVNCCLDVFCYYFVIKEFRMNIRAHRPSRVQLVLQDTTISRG

For `COc1ccc2c(c1)OC(C)(C)c1cnn(CNC(=O)CN3CCN(c4ccccc4)CC3)c1-2`, the outcome (in the experiment on HEK293 [1]; in experiment [4]) was inactive. Further, the Ki at Cannabinoid receptor 1 was more than 40 µM; on Cannabinoid receptor 2 [2] it was 4.92 µM. Besides, the Emax in [3] was 97%; in experiment [5] it was less than 25%. On Cannabinoid receptor 2 [6], this compound gave an inhibition of 70%.

As for `CCCCCCCCCCCCCCCCCC(=O)OC[C@@H](O)COP(=O)(O)O[C@@H]1[C@H](O)[C@H](O)[C@@H](O)[C@H](O)[C@H]1O`, in the experiment on HEK293 [7], the result was Active. Moreover, in [4], the EC50 stood at 0.00282 µM.

For `COc1ccc2c(c1)OC(C)(C)c1cn(CNC(=O)CN3CCN(c4cccc(C)c4C)CC3)nc1-2`, the outcome (with HEK293 [1]; in [4]) was inactive. Moreover, the Ki on Cannabinoid receptor 1 and on Cannabinoid receptor 2 [2] was more than 40 µM throughout. The maximal effect (Emax) is 102% in experiment [3] and less than 25% in experiment [5].

On to `COc1ccc2c(c1)OC(C)(C)c1cn(CCN3CCN(C(=O)C4CCCO4)CC3)nc1-2` (stereo not drawn), for which the outcome in the experiment on HEK293 [1] was inactive. Besides, the figures for the inhibition constant Ki at Cannabinoid receptor 1 and on Cannabinoid receptor 2 [2] were more than 40 µM and 1.07 µM, respectively. The maximal effect (Emax) in experiment [8] worked out at 51%; in [3], 102%. For the same compound, in experiment [9], the EC50 came out at 0.0004 µM. On Cannabinoid receptor 2 [6], the inhibition was determined as 70%.

As to `COc1ccc(N2CCN(CC(=O)NCn3ncc4c3-c3ccc(OC)cc3OC4(C)C)CC2)cc1`, the outcome (with HEK293 [1]; in experiment [4]) was inactive. Also, the Ki at Cannabinoid receptor 1 and at Cannabinoid receptor 2 [2] was more than 40 µM in each case. For the same compound, the Emax in [3] was 80%; in [5] it was less than 25%.

`COc1ccc2c(c1)OC(C)(C)c1cn(CNC(=O)CN3CCN(c4ccccc4OC)CC3)nc1-2`: in the experiment on HEK293 [1], the result was inactive. In addition, the Ki at Cannabinoid receptor 1 and at Cannabinoid receptor 2 [2] was more than 40 µM in each case. Further, the Emax was determined as 51% in experiment [8] and 90% in experiment [3]. The EC50 in experiment [9] came to 0.00636 µM.

For `COc1ccc2c(c1)OC(C)(C)c1cnn(CNC(=O)CN3CCN(c4cccc(C)c4C)CC3)c1-2`, the Ki at Cannabinoid receptor 1 and at Cannabinoid receptor 2 [2] was more than 40 µM in each case. For the same compound, the outcome in [4] was inactive.

`COc1ccc2c(c1)OC(C)(C)c1cn(CCN3CCN(C(=O)c4cccs4)CC3)nc1-2`: the outcome in the experiment on HEK293 [1] was inactive. The Ki at Cannabinoid receptor 1 is more than 40 µM; on Cannabinoid receptor 2 [2], 0.0154 µM. Besides, the Emax was 45% in experiment [8] and 96% in experiment [3]. For the same compound, a half-maximal response on Cannabinoid receptor 2 [10] (EC50) required 0.392 µM. This compound also came in with an inhibition on Cannabinoid receptor 2 [6] of 70%.

Take `COc1ccc2c(c1)OC(C)(C)c1cn(CCN3CCN(C(=O)c4ccco4)CC3)nc1-2`: in the experiment with HEK293 [1], the result was inactive. For the same compound, the values for the Ki on Cannabinoid receptor 1 and at Cannabinoid receptor 2 [2] were more than 40 µM and 0.698 µM, respectively. The Emax was 43% in [8] and 106% in [3]. Also, on Cannabinoid receptor 2 [6], the inhibition came out at 70%.

`COc1ccc2c(c1)OC(C)(C)c1cnn(CCN3CCN(C(=O)c4ccco4)CC3)c1-2`: in the experiment with HEK293 [1], the result was inactive. Also, the Ki on Cannabinoid receptor 1 is more than 40 µM. For the same compound, the Emax was 97% in [3] and less than 25% in experiment [5].

For the compound `COc1ccc2c(c1)OC(C)(C)c1cn(CCN3CCN(C(=O)c4ccccc4)CC3)nc1-2`, the outcome in the experiment with HEK293 [1] was inactive. The Ki was more than 40 µM on Cannabinoid receptor 1 and 3.6 µM on Cannabinoid receptor 2 [2]. Also, the Emax in experiment [8] was 51%; in experiment [3], 105%. Further, the 50% effective concentration (EC50) in experiment [9] stood at 0.0006 µM. The compound also yielded an inhibition at Cannabinoid receptor 2 [6] of 70%.

Take `COc1ccc2c(c1)OC(C)(C)c1cn(CNC(=O)CN3CCN(c4ccccc4)CC3)nc1-2`: the result (with HEK293 [1]; in experiment [4]) was inactive. Besides, the inhibition constant (Ki) at Cannabinoid receptor 1 is more than 40 µM; at Cannabinoid receptor 2 [2], 1.58 µM. Further, the Emax was 94% in experiment [3] and less than 25% in [5]. Also, at Cannabinoid receptor 2 [6], the inhibition was found to be 70%.

As to `COc1ccc2c(c1)OC(C)(C)c1cnn(CCN3CCN(C(=O)c4cccs4)CC3)c1-2`, the outcome in the experiment on HEK293 [1] was inactive. At Cannabinoid receptor 1, this compound came in with a Ki of more than 40 µM. Further, the figures for the Emax in experiment [3] and in experiment [5] were 99% and less than 25%, respectively.

For `COc1ccc2c(c1)OC(C)(C)c1cn(CCN3CCN(C(=O)COc4ccccc4)CC3)nc1-2`, the outcome in the experiment on HEK293 [1] was inactive. Besides, the Ki on Cannabinoid receptor 1 and on Cannabinoid receptor 2 [2] was more than 40 µM throughout. In addition, the Emax worked out at 52% in experiment [8] and 100% in [3].

On to `COc1ccc2c(c1)OC(C)(C)c1cnn(CNC(=O)CN3CCN(c4ccccc4OC)CC3)c1-2`, for which the Ki on Cannabinoid receptor 1 and at Cannabinoid receptor 2 [2] was more than 40 µM in each case. In addition, in [4], the outcome was inactive.

With `COc1ccc2c(c1)OC(C)(C)c1cn(CCN3CCN(C(=O)C4CCCCC4)CC3)nc1-2`, the result in the experiment on HEK293 [1] was inactive. In addition, the inhibition constant (Ki) was more than 40 µM on Cannabinoid receptor 1 and 0.523 µM on Cannabinoid receptor 2 [2]. Moreover, the Emax stood at 47% in experiment [8] and 99% in experiment [3]. The compound further gave an inhibition on Cannabinoid receptor 2 [6] of 70%.

For `COc1ccc2c(c1)OC(C)(C)c1cnn(CCN3CCN(C(=O)c4ccccc4)CC3)c1-2`, on Cannabinoid receptor 1, the Ki is more than 40 µM.

For `COc1ccc2c(c1)OC(C)(C)c1cn(CCN3CCN(C(=O)C(C)(C)C)CC3)nc1-2`, the result in the experiment with HEK293 [1] was inactive. The Ki on Cannabinoid receptor 1 is more than 40 µM; at Cannabinoid receptor 2 [2], 6.39 µM. The values for the Emax in experiment [8] and in experiment [3] were 49% and 100%, respectively. Further, on Cannabinoid receptor 2 [6], the inhibition was determined as 70%.
